Measurements: ChEMBL document CHEMBL1909046, “DrugMatrix in vitro pharmacology data”

Target: T1, Vasoactive intestinal polypeptide receptor 1 (Homo sapiens, UniProt P32241); note: in other assays of this panel Not Active means under 50% inhibition at 10 µM
T1 sequence (P32241 whole entry): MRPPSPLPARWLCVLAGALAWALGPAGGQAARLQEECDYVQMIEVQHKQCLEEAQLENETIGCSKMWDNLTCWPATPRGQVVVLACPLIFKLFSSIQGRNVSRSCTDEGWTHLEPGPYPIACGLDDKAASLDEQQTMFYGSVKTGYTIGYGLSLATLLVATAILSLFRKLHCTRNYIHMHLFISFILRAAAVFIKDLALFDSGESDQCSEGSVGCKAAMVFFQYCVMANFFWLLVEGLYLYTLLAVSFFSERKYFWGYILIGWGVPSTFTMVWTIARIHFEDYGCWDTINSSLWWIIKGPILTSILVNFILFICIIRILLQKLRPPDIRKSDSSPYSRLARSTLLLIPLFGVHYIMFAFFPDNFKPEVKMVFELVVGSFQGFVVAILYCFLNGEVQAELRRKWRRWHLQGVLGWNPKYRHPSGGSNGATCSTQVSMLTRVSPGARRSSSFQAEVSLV
Assay: not given
Type: cell membranes, Membrane
Details: ht-29

Row | Structure (SMILES) | IC50
1 | O=C(O)c1cn(C2CC2)c2cc(N3CCNCC3)c(F)cc2c1=O [CIPROFLOXACIN] | Not Active
2 | C=C(C)[C@@H]1[C@H]2OC(=O)[C@@H]1[C@]1(O)C[C@H]3O[C@]34C(=O)O[C@H]2[C@]14C [PICROTOXININ] | Not Active
3 | O=C1OCCN1/N=C/c1ccc([N+](=O)[O-])o1 [FURAZOLIDONE] | Not Active
4 | NS(=O)(=O)c1cc2c(cc1Cl)NCNS2(=O)=O [HYDROCHLOROTHIAZIDE] | Not Active
5 | O=c1cc(-c2ccccc2)oc2c1ccc1ccccc12 [ALPHA-NAPHTHOFLAVONE] | Not Active
6 | CN(C)CCCC1(c2ccc(F)cc2)OCc2cc(C#N)ccc21 (centres undefined) [CITALOPRAM] | Not Active

Target: T2, C-X-C chemokine receptor type 1 (Homo sapiens, UniProt P25024); note: in other assays of this panel Not Active means under 50% inhibition at 10 µM
T2 sequence (P25024 whole entry): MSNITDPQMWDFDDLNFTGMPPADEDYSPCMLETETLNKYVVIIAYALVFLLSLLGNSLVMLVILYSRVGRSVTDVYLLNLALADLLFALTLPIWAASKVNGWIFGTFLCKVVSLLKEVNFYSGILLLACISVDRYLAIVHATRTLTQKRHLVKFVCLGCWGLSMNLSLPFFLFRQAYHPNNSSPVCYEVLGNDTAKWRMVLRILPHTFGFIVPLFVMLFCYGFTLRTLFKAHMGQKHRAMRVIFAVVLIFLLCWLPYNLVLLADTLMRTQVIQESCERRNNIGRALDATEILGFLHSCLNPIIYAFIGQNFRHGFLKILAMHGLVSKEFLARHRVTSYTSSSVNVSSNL
Assay: not given
Details: not given

Row | Structure (SMILES) | IC50
7 | O=C(O)c1cn(C2CC2)c2cc(N3CCNCC3)c(F)cc2c1=O [CIPROFLOXACIN] | Not Active
8 | C=C(C)[C@@H]1[C@H]2OC(=O)[C@@H]1[C@]1(O)C[C@H]3O[C@]34C(=O)O[C@H]2[C@]14C [PICROTOXININ] | Not Active
9 | O=C1OCCN1/N=C/c1ccc([N+](=O)[O-])o1 [FURAZOLIDONE] | Not Active
10 | NS(=O)(=O)c1cc2c(cc1Cl)NCNS2(=O)=O [HYDROCHLOROTHIAZIDE] | Not Active
11 | O=c1cc(-c2ccccc2)oc2c1ccc1ccccc12 [ALPHA-NAPHTHOFLAVONE] | Not Active
12 | CN(C)CCCC1(c2ccc(F)cc2)OCc2cc(C#N)ccc21 (centres undefined) [CITALOPRAM] | Not Active

Target: T3, Cholecystokinin receptor type A (Homo sapiens, UniProt P32238); note: in other assays of this panel Not Active means under 50% inhibition at 10 µM
T3 sequence (P32238 whole entry): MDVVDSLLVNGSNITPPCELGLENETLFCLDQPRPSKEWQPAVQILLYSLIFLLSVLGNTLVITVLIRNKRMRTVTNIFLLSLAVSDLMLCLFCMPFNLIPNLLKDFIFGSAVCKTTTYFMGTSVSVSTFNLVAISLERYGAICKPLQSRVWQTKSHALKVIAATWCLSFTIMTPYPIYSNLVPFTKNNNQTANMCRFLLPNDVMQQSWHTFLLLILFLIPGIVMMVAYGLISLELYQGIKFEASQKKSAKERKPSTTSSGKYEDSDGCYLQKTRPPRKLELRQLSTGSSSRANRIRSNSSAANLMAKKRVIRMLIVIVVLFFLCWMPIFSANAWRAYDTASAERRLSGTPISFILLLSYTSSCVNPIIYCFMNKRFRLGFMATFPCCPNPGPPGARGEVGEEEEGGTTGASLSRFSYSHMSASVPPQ
Assay: not given
Type: cell membranes, Membrane
Details: 1321-n1

Row | Structure (SMILES) | IC50
13 | O=C(O)c1cn(C2CC2)c2cc(N3CCNCC3)c(F)cc2c1=O [CIPROFLOXACIN] | Not Active
14 | C=C(C)[C@@H]1[C@H]2OC(=O)[C@@H]1[C@]1(O)C[C@H]3O[C@]34C(=O)O[C@H]2[C@]14C [PICROTOXININ] | Not Active
15 | O=C1OCCN1/N=C/c1ccc([N+](=O)[O-])o1 [FURAZOLIDONE] | Not Active
16 | NS(=O)(=O)c1cc2c(cc1Cl)NCNS2(=O)=O [HYDROCHLOROTHIAZIDE] | Not Active
17 | O=c1cc(-c2ccccc2)oc2c1ccc1ccccc12 [ALPHA-NAPHTHOFLAVONE] | Not Active
18 | CN(C)CCCC1(c2ccc(F)cc2)OCc2cc(C#N)ccc21 (centres undefined) [CITALOPRAM] | Not Active

System: not listed separately
Assay: DRUGMATRIX: Platelet-Derived Growth Factor (PDGF) radioligand binding (ligand: [125I] PDGF)
Type: cell-based
Details: nih3t3; Not Active = under 50% inhibition at 10 µM

Row | Structure (SMILES) | IC50 | Ki
19 | O=C(O)c1cn(C2CC2)c2cc(N3CCNCC3)c(F)cc2c1=O [CIPROFLOXACIN] | Not Active | Not Active
20 | C=C(C)[C@@H]1[C@H]2OC(=O)[C@@H]1[C@]1(O)C[C@H]3O[C@]34C(=O)O[C@H]2[C@]14C [PICROTOXININ] | Not Active | Not Active
21 | O=C1OCCN1/N=C/c1ccc([N+](=O)[O-])o1 [FURAZOLIDONE] | Not Active | Not Active
22 | NS(=O)(=O)c1cc2c(cc1Cl)NCNS2(=O)=O [HYDROCHLOROTHIAZIDE] | Not Active | Not Active
23 | O=c1cc(-c2ccccc2)oc2c1ccc1ccccc12 [ALPHA-NAPHTHOFLAVONE] | Not Active | Not Active
24 | CN(C)CCCC1(c2ccc(F)cc2)OCc2cc(C#N)ccc21 (centres undefined) [CITALOPRAM] | Not Active | Not Active

Target: Receptor tyrosine-protein kinase erbB-2 (Homo sapiens, UniProt P04626);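 note: inhibition of HER2 kinase enzyme activity, measured with Poly(Glu:Tyr) as the phosphorylation substrate; in other assays of this panel Not Active means under 50% inhibition at 10 µM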
Sequence (P04626 whole entry): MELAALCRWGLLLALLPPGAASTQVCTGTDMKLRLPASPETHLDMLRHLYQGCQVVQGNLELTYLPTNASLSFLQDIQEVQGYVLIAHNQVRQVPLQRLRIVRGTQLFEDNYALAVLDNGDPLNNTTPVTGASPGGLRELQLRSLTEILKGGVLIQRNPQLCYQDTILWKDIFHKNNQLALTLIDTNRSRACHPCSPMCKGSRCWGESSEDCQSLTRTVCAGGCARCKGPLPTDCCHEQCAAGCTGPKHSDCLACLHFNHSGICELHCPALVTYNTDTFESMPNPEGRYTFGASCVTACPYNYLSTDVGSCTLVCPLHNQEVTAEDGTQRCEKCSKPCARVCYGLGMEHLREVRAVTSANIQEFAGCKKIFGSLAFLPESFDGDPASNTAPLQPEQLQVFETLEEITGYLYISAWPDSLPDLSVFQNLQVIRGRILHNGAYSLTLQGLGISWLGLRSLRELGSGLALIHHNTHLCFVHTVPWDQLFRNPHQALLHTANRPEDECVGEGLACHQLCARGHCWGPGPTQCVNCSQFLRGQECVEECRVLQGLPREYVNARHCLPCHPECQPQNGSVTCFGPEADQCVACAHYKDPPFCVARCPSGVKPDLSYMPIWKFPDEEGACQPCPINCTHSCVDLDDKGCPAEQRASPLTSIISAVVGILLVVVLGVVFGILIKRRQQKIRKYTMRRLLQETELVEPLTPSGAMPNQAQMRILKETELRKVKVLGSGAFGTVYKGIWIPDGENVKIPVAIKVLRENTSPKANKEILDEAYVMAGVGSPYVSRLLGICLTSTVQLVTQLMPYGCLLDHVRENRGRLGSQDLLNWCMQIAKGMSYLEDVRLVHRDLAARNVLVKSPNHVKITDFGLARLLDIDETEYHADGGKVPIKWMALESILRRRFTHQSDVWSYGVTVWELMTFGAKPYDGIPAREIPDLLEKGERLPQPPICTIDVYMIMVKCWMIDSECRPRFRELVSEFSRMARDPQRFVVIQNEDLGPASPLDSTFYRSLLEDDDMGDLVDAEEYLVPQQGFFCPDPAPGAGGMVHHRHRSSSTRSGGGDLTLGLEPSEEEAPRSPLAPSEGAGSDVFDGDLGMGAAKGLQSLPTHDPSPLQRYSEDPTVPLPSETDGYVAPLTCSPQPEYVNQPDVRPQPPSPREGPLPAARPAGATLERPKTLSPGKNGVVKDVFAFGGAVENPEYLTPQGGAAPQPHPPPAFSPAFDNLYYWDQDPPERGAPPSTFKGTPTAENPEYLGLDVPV
Assay: biochemical
Type: cell-based, Insect cells
Details: insect cells

Row | Structure (SMILES) | IC50
25 | O=C(O)c1cn(C2CC2)c2cc(N3CCNCC3)c(F)cc2c1=O [CIPROFLOXACIN] | Not Active
26 | C=C(C)[C@@H]1[C@H]2OC(=O)[C@@H]1[C@]1(O)C[C@H]3O[C@]34C(=O)O[C@H]2[C@]14C [PICROTOXININ] | Not Active
27 | O=C1OCCN1/N=C/c1ccc([N+](=O)[O-])o1 [FURAZOLIDONE] | Not Active
28 | NS(=O)(=O)c1cc2c(cc1Cl)NCNS2(=O)=O [HYDROCHLOROTHIAZIDE] | Not Active
29 | O=c1cc(-c2ccccc2)oc2c1ccc1ccccc12 [ALPHA-NAPHTHOFLAVONE] | Not Active
30 | CN(C)CCCC1(c2ccc(F)cc2)OCc2cc(C#N)ccc21 (centres undefined) [CITALOPRAM] | Not Active

Target: Tyrosine-protein kinase Lck (Homo sapiens, UniProt P06239)
Sequence (P06239 whole entry): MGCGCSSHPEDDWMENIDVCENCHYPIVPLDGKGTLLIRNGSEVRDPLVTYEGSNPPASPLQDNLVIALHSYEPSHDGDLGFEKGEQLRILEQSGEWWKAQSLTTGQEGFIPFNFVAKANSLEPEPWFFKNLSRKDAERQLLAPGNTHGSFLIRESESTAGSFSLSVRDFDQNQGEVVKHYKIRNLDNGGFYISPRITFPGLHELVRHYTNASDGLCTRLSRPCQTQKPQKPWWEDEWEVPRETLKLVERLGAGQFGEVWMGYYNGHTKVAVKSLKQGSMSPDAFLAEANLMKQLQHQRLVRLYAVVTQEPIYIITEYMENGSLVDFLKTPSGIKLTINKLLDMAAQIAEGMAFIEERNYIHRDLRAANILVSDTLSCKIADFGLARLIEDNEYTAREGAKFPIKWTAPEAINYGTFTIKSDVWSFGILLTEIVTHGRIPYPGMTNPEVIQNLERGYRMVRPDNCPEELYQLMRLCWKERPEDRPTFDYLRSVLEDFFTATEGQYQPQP
Assay: DRUGMATRIX: Protein Tyrosine Kinase, LCK enzyme inhibition (substrate: Poly(Glu:Tyr))
Type: cell-based, Insect cells
Details: insect cells; Not Active = under 50% inhibition at 10 µM

Row | Structure (SMILES) | IC50
31 | O=C(O)c1cn(C2CC2)c2cc(N3CCNCC3)c(F)cc2c1=O [CIPROFLOXACIN] | Not Active
32 | C=C(C)[C@@H]1[C@H]2OC(=O)[C@@H]1[C@]1(O)C[C@H]3O[C@]34C(=O)O[C@H]2[C@]14C [PICROTOXININ] | Not Active
33 | O=C1OCCN1/N=C/c1ccc([N+](=O)[O-])o1 [FURAZOLIDONE] | Not Active
34 | NS(=O)(=O)c1cc2c(cc1Cl)NCNS2(=O)=O [HYDROCHLOROTHIAZIDE] | Not Active
35 | O=c1cc(-c2ccccc2)oc2c1ccc1ccccc12 [ALPHA-NAPHTHOFLAVONE] | Not Active
36 | CN(C)CCCC1(c2ccc(F)cc2)OCc2cc(C#N)ccc21 (centres undefined) [CITALOPRAM] | Not Active

Target: T4, Estrogen receptor (Homo sapiens, UniProt P03372); note: in other assays of this panel Not Active means under 50% inhibition at 10 µM
T4 sequence (P03372 whole entry): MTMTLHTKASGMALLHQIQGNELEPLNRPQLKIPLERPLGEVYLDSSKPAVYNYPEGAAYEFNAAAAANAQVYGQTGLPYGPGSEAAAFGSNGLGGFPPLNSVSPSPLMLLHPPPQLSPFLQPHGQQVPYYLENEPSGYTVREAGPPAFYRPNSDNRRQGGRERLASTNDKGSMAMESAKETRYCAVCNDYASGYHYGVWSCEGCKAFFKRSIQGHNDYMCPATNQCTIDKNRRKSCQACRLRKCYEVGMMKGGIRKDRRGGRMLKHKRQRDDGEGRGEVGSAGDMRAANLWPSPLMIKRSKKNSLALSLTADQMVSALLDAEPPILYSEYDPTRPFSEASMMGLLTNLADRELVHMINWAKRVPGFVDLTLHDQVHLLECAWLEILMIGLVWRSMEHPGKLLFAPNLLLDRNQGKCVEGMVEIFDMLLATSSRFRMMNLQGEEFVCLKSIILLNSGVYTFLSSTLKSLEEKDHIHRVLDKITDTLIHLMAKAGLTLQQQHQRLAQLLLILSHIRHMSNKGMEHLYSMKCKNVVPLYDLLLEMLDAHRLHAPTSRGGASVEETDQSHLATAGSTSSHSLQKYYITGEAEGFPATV
Assay: not given
Details: sf9

Row | Structure (SMILES) | IC50
37 | O=C(O)c1cn(C2CC2)c2cc(N3CCNCC3)c(F)cc2c1=O [CIPROFLOXACIN] | Not Active
38 | C=C(C)[C@@H]1[C@H]2OC(=O)[C@@H]1[C@]1(O)C[C@H]3O[C@]34C(=O)O[C@H]2[C@]14C [PICROTOXININ] | Not Active
39 | O=C1OCCN1/N=C/c1ccc([N+](=O)[O-])o1 [FURAZOLIDONE] | Not Active
40 | NS(=O)(=O)c1cc2c(cc1Cl)NCNS2(=O)=O [HYDROCHLOROTHIAZIDE] | Not Active
41 | O=c1cc(-c2ccccc2)oc2c1ccc1ccccc12 [ALPHA-NAPHTHOFLAVONE] | Not Active
42 | CN(C)CCCC1(c2ccc(F)cc2)OCc2cc(C#N)ccc21 (centres undefined) [CITALOPRAM] | Not Active

Target: T5, Glucocorticoid receptor (Homo sapiens, UniProt P04150); note: in other assays of this panel Not Active means under 50% inhibition at 10 µM
T5 sequence (P04150 whole entry): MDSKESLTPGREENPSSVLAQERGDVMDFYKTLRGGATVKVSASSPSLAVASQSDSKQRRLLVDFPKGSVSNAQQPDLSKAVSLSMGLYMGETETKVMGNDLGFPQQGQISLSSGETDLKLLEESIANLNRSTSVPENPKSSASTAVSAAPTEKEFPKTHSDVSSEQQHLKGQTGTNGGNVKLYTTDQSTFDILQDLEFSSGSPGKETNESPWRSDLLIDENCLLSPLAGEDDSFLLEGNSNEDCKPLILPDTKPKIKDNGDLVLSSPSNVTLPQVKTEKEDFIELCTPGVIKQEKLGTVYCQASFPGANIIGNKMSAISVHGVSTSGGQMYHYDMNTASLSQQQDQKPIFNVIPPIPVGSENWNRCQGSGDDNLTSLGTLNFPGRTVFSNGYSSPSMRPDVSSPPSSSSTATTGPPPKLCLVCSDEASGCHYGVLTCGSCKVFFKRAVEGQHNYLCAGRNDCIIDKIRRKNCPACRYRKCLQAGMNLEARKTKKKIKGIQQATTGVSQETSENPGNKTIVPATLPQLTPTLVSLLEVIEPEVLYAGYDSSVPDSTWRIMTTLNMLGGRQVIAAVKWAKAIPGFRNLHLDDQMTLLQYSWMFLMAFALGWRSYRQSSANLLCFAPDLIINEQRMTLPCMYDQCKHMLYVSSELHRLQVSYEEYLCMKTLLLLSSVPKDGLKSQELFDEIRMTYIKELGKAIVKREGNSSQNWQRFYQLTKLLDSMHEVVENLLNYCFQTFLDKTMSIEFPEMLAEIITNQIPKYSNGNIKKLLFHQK
Assay: not given
Details: hela s3

Row | Structure (SMILES) | IC50
43 | O=C(O)c1cn(C2CC2)c2cc(N3CCNCC3)c(F)cc2c1=O [CIPROFLOXACIN] | Not Active
44 | C=C(C)[C@@H]1[C@H]2OC(=O)[C@@H]1[C@]1(O)C[C@H]3O[C@]34C(=O)O[C@H]2[C@]14C [PICROTOXININ] | Not Active
45 | O=C1OCCN1/N=C/c1ccc([N+](=O)[O-])o1 [FURAZOLIDONE] | Not Active
46 | NS(=O)(=O)c1cc2c(cc1Cl)NCNS2(=O)=O [HYDROCHLOROTHIAZIDE] | Not Active
47 | O=c1cc(-c2ccccc2)oc2c1ccc1ccccc12 [ALPHA-NAPHTHOFLAVONE] | Not Active
48 | CN(C)CCCC1(c2ccc(F)cc2)OCc2cc(C#N)ccc21 (centres undefined) [CITALOPRAM] | Not Active
